Measurements published in BindingDB's records for doi:10.1016/j.bmcl.2019.05.048 (Bristol-Myers Squibb, 2019).

Target: Hepatic lipase (Mouse)
Experiment: Inhibition of hepatic lipase in endothelial lipase knock-out mouse plasma using D31-POPC-HDL as substrate incubated for 2 hrs by LC/MS analysis

IC50: 26 µM
Compound: COCCS(=O)(=O)C(C(=O)NCC(=O)NC1CC1)c1nc2ccc(-c3ccc(F)nc3)cc2s1 (stereo unspecified)
